Reference: patent publication US12466820B2, “Amino quinazoline derivatives as P2X3 inhibitors” (CHIESI FARMACEUTICI S.p.A., priority 2019, dated 2025)
pIC50: −log10 of the molar value. Counter-ions that a name gives are not always drawn.

Target: T1, h P2X3 (Homo sapiens, UniProt P56373)
T1 sequence (P56373 1-397): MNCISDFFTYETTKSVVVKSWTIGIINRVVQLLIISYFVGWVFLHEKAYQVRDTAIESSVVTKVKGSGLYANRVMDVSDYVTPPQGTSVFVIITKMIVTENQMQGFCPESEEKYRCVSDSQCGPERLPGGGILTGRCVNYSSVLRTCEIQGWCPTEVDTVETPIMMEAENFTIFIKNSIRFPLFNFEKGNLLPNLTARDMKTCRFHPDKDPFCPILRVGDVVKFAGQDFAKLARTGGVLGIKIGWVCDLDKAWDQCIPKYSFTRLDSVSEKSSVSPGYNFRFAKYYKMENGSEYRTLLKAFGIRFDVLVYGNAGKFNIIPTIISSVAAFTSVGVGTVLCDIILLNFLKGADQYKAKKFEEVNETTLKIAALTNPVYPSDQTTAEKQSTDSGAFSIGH
Assay: In vitro electrophysiology assay for P2X3 (automated whole-cell patch clamp, Sophion Qube)
Type: cell-based
Details: Table 6; range of activity; inhibition of P2X3 current, agonist α,β-MeATP (800 nM)
Protocol: Pharmacological Activity of the Compounds of the Invention In Vitro Electrophysiology Assay for P2X3
Cells expressing P2X3 receptors were grown according to standard practice and maintained at 37° C. in a 5% humidified CO2 atmosphere. The cells were seeded into T175 flask 2 days prior to the day of the assay and dissociated from the flasks using TrypLE when grown to confluence of 80-90%. The dissociated cells were resuspended in serum free media at a cell density of 3×10^6 cells/ml and loaded onto the Sophion Qube automated patch-clamp system. The extracellular assay buffer contained 145 mM NaCl, 4 mM KCl, 2 mM CaCl2), 1 mM MgCl2, 10 mM HEPES, and 10 mM glucose at pH 7.4. The intracellular assay solution contained 140 mM CsF, 10 mM NaCl, 10 mM EGTA, 10 mM HEPES at pH 7.2. Agonist stock solutions were prepared in H2O and diluted in bath solution prior to use. All antagonists were prepared as 10 mM stock solutions in DMSO and diluted in bath solution prior to use. All experiments were performed under the whole-cell patch clamp configuration at room temperature with 384 individual cells being voltage clamped at −60 mV simultaneously on the Sophion Qube instrument. Two baseline responses were established with the application of α,β-MeATP (800 nM), with the subsequent agonist applications being washed out using extracellular assay buffer containing 0.5 U/ml apyrase. Following the second agonist application, antagonist was incubated in the absence of α,β-MeATP for 10 minutes. After antagonist preincubation, 800 nM α,β-MeATP and antagonist were co-administered to determine the inhibitory effect of the antagonist. One concentration of an antagonist was assessed against a single cell, with different concentrations of the antagonist applied to other cells on the 384 recording substrate. The control P2X3 current amplitude was taken from the peak current amplitude from the second agonist response prior to preincubation with antagonist. The peak P2X3 current amplitude in the presence of antagonist was used to calculate the inhibitory effect at each concentration of the antagonist according to the following equation: […]
Concentration-response curves were constructed from ten different concentrations with each concentration of antagonist tested on at least two individual cells. The concentration of the antagonist to inhibit P2X3 current by 50% (IC50) was determined by fitting the data with the following equation: […]
Where ‘a’ is minimum response, ‘b’ is maximum response, ‘c’ is IC50 and ‘d’ is Hill slope.
The results for individual compounds are provided below in Table 6 and are expressed as range of activity.
The activity of the comparative examples A and B have been tested in the in vitro Electrophysiology Assay for P2X3 as described above.

| SMILES | pIC50 |
| --- | --- |
| Cc1ccc(CNc2ncnc3c(OCCO)cc(-c4ncc(C)s4)cc23)nn1 [Example 36, 2-((4-(((6-methylpyridazin-3-yl)methyl)amino)-6-(5-methylthiazol-2-yl)quinazolin-8-yl)oxy)ethan-1-ol] | > 6.50 |
| COc1cc(-n2ccc(F)n2)cc2c(N[C@H](C)c3ccc(C)nn3)ncnc12 [Example 101, (R)-6-(3-fluoro-1H-pyrazol-1-yl)-8-methoxy-N-(1-(6-methylpyridazin-3-yl)ethyl)quinazolin-4-amine] | 5.50 to 6.50 |
| COc1cc(-c2ncc(C)s2)cc2c(NCc3nnc(C)s3)ncnc12 [Example 114, 8-methoxy-N-((5-methyl-1,3,4-thiadiazol-2-yl)methyl)-6-(5-methylthiazol-2-yl)quinazolin-4-amine] | > 6.50 |
| Cc1ccc(CNc2ncnc3c(OCC4COC4)cc(-c4ncc(C)s4)cc23)nn1 [Example 37, N-((6-methylpyridazin-3-yl)methyl)-6-(5-methylthiazol-2-yl)-8-(oxetan-3-ylmethoxy)quinazolin-4-amine] | > 6.50 |
| COc1cc(-c2ccc(C)cn2)cc2c(NCc3cc(C)on3)ncnc12 [Example 139, 8-methoxy-N-[(5-methylisoxazol-3-yl)methyl]-6-(5-methyl-2-pyridyl)quinazolin-4-amine] | > 6.50 |
| Cc1ccc([C@@H](C)Nc2ncnc3c(OC4CCOCC4)cc(-c4ncc(C)s4)cc23)nn1 [Example 33] | > 6.50 |
| COc1cc(-c2ccn(C)n2)cc2c(NC(C)c3nnc(C)o3)ncnc12 (stereo not shown) [Example 105] | 5.50 to 6.50 |
| COc1cc(-c2ncc(C)cn2)cc2c(NC(C)c3ccc(C(F)(F)F)nn3)ncnc12 (single isomer, unassigned) [Example 120, 8-methoxy-6-(5-methylpyrimidin-2-yl)-N-[1-[6-(trifluoromethyl)pyridazin-3-yl]ethyl]quinazolin-4-amine] | > 6.50 |
| Cc1ccc(CNc2ncnc3c(-c4ccnn4C)cc(-c4ccc(F)cc4)cc23)nn1 [Example 94, 6-(4-fluorophenyl)-8-(2-methylpyrazol-3-yl)-N-[(6-methylpyridazin-3-yl)methyl]quinazolin-4-amine] | 5.50 to 6.50 |
| COc1cc(-c2ccc(F)cn2)cc2c(NCc3nnc(C)o3)ncnc12 [Example 134, 6-(5-fluoropyridin-2-yl)-8-methoxy-N-((5-methyl-1,3,4-oxadiazol-2-yl)methyl)quinazolin-4-amine] | 5.50 to 6.50 |
| Cc1ccc(-c2cc(OC3CCOCC3)c3ncnc(NC(C)c4nnc(C)s4)c3c2)nc1 (single isomer, unassigned) [Example 83, 6-(5-methyl-2-pyridyl)-N-[1-(5-methyl-1,3,4-thiadiazol-2-yl)ethyl]-8-tetrahydropyran-4-yloxy-quinazolin-4-amine] | 5.50 to 6.50 |
| COc1cc(-c2ncc(C)cn2)cc2c(NC(C)c3nc(C)no3)ncnc12 (single isomer, unassigned) [Example 122, 8-Methoxy-N-[1-(3-methyl-1,2,4-oxadiazol-5-yl)ethyl]-6-(5-methylpyrimidin-2-yl)quinazolin-4-amine] | 4.50 to 5.50 |
| COc1cc(-c2ccc(F)cn2)cc2c(N[C@H](C)c3ccn(C)n3)ncnc12 [Example 158, 6-(5-fluoro-2-pyridyl)-8-methoxy-N-[(1R)-1-(1-methylpyrazol-3-yl)ethyl]quinazolin-4-amine] | 5.50 to 6.50 |
| COc1cc(-c2ncc(C)cn2)cc2c(NC(C)c3nnc(C)s3)ncnc12 (single isomer, unassigned) [Example 125, 8-Methoxy-6-(5-methylpyrimidin-2-yl)-N-[1-(5-methyl-1,3,4-thiadiazol-2-yl)ethyl]quinazolin-4-amine] | > 6.50 |
| COc1cc(-c2ccc(C)cn2)cc2c(NC(C)c3nc(C)no3)ncnc12 (single isomer, unassigned) [Example 162, 8-Methoxy-N-[1-(3-methyl-1,2,4-oxadiazol-5-yl)ethyl]-6-(5-methyl-2-pyridyl)quinazolin-4-amine] | 5.50 to 6.50 |
| Cc1cnc(-c2cc(OC3CCOCC3)c3ncnc(NC(C)c4nnc(C)s4)c3c2)s1 (single isomer, unassigned) [Example 171, N-[1-(5-methyl-1,3,4-thiadiazol-2-yl)ethyl]-6-(5-methylthiazol-2-yl)-8-tetrahydropyran-4-yloxy-quinazolin-4-amine] | 5.50 to 6.50 |
| COc1cc(-c2ncc(C)cn2)cc2c(NC(C)c3nnc(C)o3)ncnc12 (single isomer, unassigned) [Example 128] | 4.50 to 5.50 |
| COc1cc(-c2ccc(F)cn2)cc2c(NCc3ccn(C)c(=O)c3)ncnc12 [Example 147, 4-(((6-(5-fluoropyridin-2-yl)-8-methoxyquinazolin-4-yl)amino)methyl)-1-methylpyridin-2(1H)-one] | 5.50 to 6.50 |
| COc1cc(-c2ccc(F)cn2)cc2c(NCc3ccn(C)n3)ncnc12 [Example 140, 6-(5-fluoro-2-pyridyl)-8-methoxy-N-[(1-methylpyrazol-3-yl)methyl]quinazolin-4-amine] | 5.50 to 6.50 |
| Cc1cnc(-c2cc(OC3CCOCC3)c3ncnc(NC(C)c4nnc(C)s4)c3c2)s1 (stereo not shown) [Example 81, N-[1-(5-methyl-1,3,4-thiadiazol-2-yl)ethyl]-6-(5-methylthiazol-2-yl)-8-tetrahydropyran-4-yloxy-quinazolin-4-amine] | 5.50 to 6.50 |
| C[C@@H](Nc1ncnc2c(-c3cncnc3)cc(-c3ccc(F)cc3)cc12)c1cnc(C(F)(F)F)nc1 [Example 25, (R)-6-(4-fluorophenyl)-8-(pyrimidin-5-yl)-N-(1-(2-(trifluoromethyl)pyrimidin-5-yl)ethyl)quinazolin-4-amine] | > 6.50 |
| COCCOc1cc(-c2ncc(C)s2)cc2c(NCc3ccc(C)nn3)ncnc12 [Example 35, 8-(2-methoxyethoxy)-N-((6-methylpyridazin-3-yl)methyl)-6-(5-methylthiazol-2-yl)quinazolin-4-amine] | > 6.50 |
| Cc1ccc([C@@H](C)Nc2ncnc3c(OC4CCOCC4)cc(-c4ccn(C)n4)cc23)nn1 [Example 32, (R)-6-(1-methyl-1H-pyrazol-3-yl)-N-(1-(6-methylpyridazin-3-yl)ethyl)-8-((tetrahydro-2H-pyran-4-yl)oxy)quinazolin-4-amine] | 5.50 to 6.50 |
| COc1cc(-c2ncc(C)cn2)cc2c(NCc3nc(C)no3)ncnc12 [Example 156, 8-Methoxy-N-((3-methyl-1,2,4-oxadiazol-5-yl)methyl)-6-(5-methylpyrimidin-2-yl)quinazolin-4-amine] | 5.50 to 6.50 |
| Cc1cnc(-c2cc(OCC(=O)O)c3ncnc(NCc4ccc(C)nn4)c3c2)nc1 [Example 55, 2-((4-(((6-methylpyridazin-3-yl)methyl)amino)-6-(5-methylpyrimidin-2-yl)quinazolin-8-yl)oxy)acetic acid dihydrochloride] | > 6.50 |
